tested on: HLA-DR2; conditions: pH 6
Procedure: In order to compare the binding of various MBP peptides to DR2, purified DR2 at a concentration of 20 μg/ml was incubated with 50-fold molar excess of Bt-MBP peptides for 72 hours at varying pH, ranging from pH 5-10 binding buffer at 37° C. […] Monoclonal antibody against HLA-DR2 at a concentration of 20 μg/ml and BSA-biotin (with 0.014-1.80 pmoles (0.117-15 ng), were coated in 96-well microtiter plates (Nunc poly-Sorb, Baxter) overnight at 4° C. Plates were blocked with 1% fish gelatin. Prepared HLA-DR2-biotin peptide complexes were applied to the wells in duplicates ranging from 12.5 ng-200 ng (0.21-3.32 pmoles) in appropriate dilution buffers and incubated for 2 hours at room temperature. The wells were washed three times with PBS containing 0.01% Tween-20 to remove unbound peptide. Bound biotinylated peptides were detected colorimetrically using alkaline phosphatase conjugated streptavidin and p-nitrophenyl phosphate (disodium) in 0.1M diethnolamine as a substrate. Wells were read at 405 nm in microliter plate reader (Molecular Devices). The percent of DR2 with bound peptide was calculated using standard BSA-biotin (eight biotin molecules per BSA). Purified HLA-DR2 used in this study contains a mixture of DRB5*0101 and DRB1*1501 beta chains.
In the first experiment, the binding of MBP(84-102) peptide to purified DR2 was compared with MBP(83-102)Y83 peptide at various pH.

percent of DR2 occupied with bound peptide | Structure (SMILES)
55% | CC[C@H](C)[C@H](NC(=O)[C@H](CC(N)=O)NC(=O)[C@H](CCCCN)NC(=O)[C@H](Cc1ccccc1)NC(=O)[C@H](Cc1ccccc1)NC(=O)[C@H](Cc1c[nH]cn1)NC(=O)[C@@H](NC(=O)[C@@H](NC(=O)[C@@H]1CCCN1C(=O)[C@H](CC(N)=O)NC(=O)[C@H](CCC(=O)O)NC(=O)[C@H](CC(=O)O)NC(=O)[C@H](CC(=O)O)NC(=O)CCCC[C@@H]1SC[C@@H]2NC(=O)N[C@@H]21)C(C)C)C(C)C)C(=O)N[C@H](C(=O)N[C@H](C(=O)N1CCC[C@H]1C(=O)N[C@@H](CCCNC(=N)N)C(=O)N[C@H](C(=O)N1CCC[C@H]1C(=O)N1CCC[C@H]1C(N)=O)[C@@H](C)O)[C@@H](C)O)C(C)C [MBP(83-102)D83, Bt-DDENPVVHFF KNIVTPRTPP-NH2]
45% | CC[C@H](C)[C@H](NC(=O)[C@H](CC(N)=O)NC(=O)[C@H](CCCCN)NC(=O)[C@H](Cc1ccccc1)NC(=O)[C@H](Cc1ccccc1)NC(=O)[C@H](Cc1c[nH]cn1)NC(=O)[C@@H](NC(=O)[C@@H](NC(=O)[C@@H]1CCCN1C(=O)[C@H](CC(N)=O)NC(=O)[C@H](CCC(=O)O)NC(=O)[C@H](CC(=O)O)NC(=O)CCCC[C@@H]1SC[C@@H]2NC(=O)N[C@@H]21)C(C)C)C(C)C)C(=O)N[C@H](C(=O)N[C@H](C(=O)N1CCC[C@H]1C(=O)N[C@@H](CCCNC(=N)N)C(=O)N[C@H](C(=O)N1CCC[C@H]1C(=O)N1CCC[C@H]1C(N)=O)[C@@H](C)O)[C@@H](C)O)C(C)C [MBP(84-102), Bt-DENPVVHFFK NIVTPRTPP-NH2, reference compound]
100% | CC[C@H](C)[C@H](NC(=O)[C@H](CC(N)=O)NC(=O)[C@H](CCCCN)NC(=O)[C@H](Cc1ccccc1)NC(=O)[C@H](Cc1ccccc1)NC(=O)[C@H](Cc1c[nH]cn1)NC(=O)[C@@H](NC(=O)[C@@H](NC(=O)[C@@H]1CCCN1C(=O)[C@H](CC(N)=O)NC(=O)[C@H](CCC(=O)O)NC(=O)[C@H](CC(=O)O)NC(=O)[C@H](C)NC(=O)CCCC[C@@H]1SC[C@@H]2NC(=O)N[C@@H]21)C(C)C)C(C)C)C(=O)N[C@H](C(=O)N[C@H](C(=O)N1CCC[C@H]1C(=O)N[C@@H](CCCNC(=N)N)C(=O)N[C@H](C(=O)N1CCC[C@H]1C(=O)N1CCC[C@H]1C(N)=O)[C@@H](C)O)[C@@H](C)O)C(C)C [MBP(83-102)A83, Bt-ADENPVVHFF KNIVTPRTPP-NH2]
40% | CC[C@H](C)[C@H](NC(=O)[C@H](CC(N)=O)NC(=O)[C@H](CCCCN)NC(=O)[C@H](Cc1ccccc1)NC(=O)[C@H](Cc1ccccc1)NC(=O)[C@H](Cc1c[nH]cn1)NC(=O)[C@@H](NC(=O)[C@@H](NC(=O)[C@@H]1CCCN1C(=O)[C@H](CC(N)=O)NC(=O)[C@H](CCC(=O)O)NC(=O)[C@H](CC(=O)O)NC(=O)[C@H](CCC(N)=O)NC(=O)CCCC[C@@H]1SC[C@@H]2NC(=O)N[C@@H]21)C(C)C)C(C)C)C(=O)N[C@H](C(=O)N[C@H](C(=O)N1CCC[C@H]1C(=O)N[C@@H](CCCNC(=N)N)C(=O)N[C@H](C(=O)N1CCC[C@H]1C(=O)N1CCC[C@H]1C(N)=O)[C@@H](C)O)[C@@H](C)O)C(C)C [MBP(83-102)Q83, Bt-QDENPVVHFF KNIVTPRTPP-NH2]
75% | CC[C@H](C)[C@H](NC(=O)[C@H](CC(N)=O)NC(=O)[C@H](CCCCN)NC(=O)[C@H](Cc1ccccc1)NC(=O)[C@H](Cc1ccccc1)NC(=O)[C@H](Cc1c[nH]cn1)NC(=O)[C@@H](NC(=O)[C@@H](NC(=O)[C@@H]1CCCN1C(=O)[C@H](CC(N)=O)NC(=O)[C@H](CCC(=O)O)NC(=O)[C@H](CC(=O)O)NC(=O)[C@H](CCCCN)NC(=O)CCCC[C@@H]1SC[C@@H]2NC(=O)N[C@@H]21)C(C)C)C(C)C)C(=O)N[C@H](C(=O)N[C@H](C(=O)N1CCC[C@H]1C(=O)N[C@@H](CCCNC(=N)N)C(=O)N[C@H](C(=O)N1CCC[C@H]1C(=O)N1CCC[C@H]1C(N)=O)[C@@H](C)O)[C@@H](C)O)C(C)C [MBP(83-102)K83, Bt-KDENPVVHFF KNIVTPRTPP-NH2]
12% | CC[C@H](C)[C@H](NC(=O)[C@H](CC(N)=O)NC(=O)[C@H](CCCCN)NC(=O)[C@H](Cc1ccccc1)NC(=O)[C@H](Cc1ccccc1)NC(=O)[C@H](Cc1c[nH]cn1)NC(=O)[C@@H](NC(=O)[C@@H](NC(=O)[C@@H]1CCCN1C(=O)[C@H](CC(N)=O)NC(=O)[C@H](CCC(=O)O)NC(=O)[C@H](CC(=O)O)NC(=O)[C@H](Cc1ccccc1)NC(=O)CCCC[C@@H]1SC[C@@H]2NC(=O)N[C@@H]21)C(C)C)C(C)C)C(=O)N[C@H](C(=O)N[C@H](C(=O)N1CCC[C@H]1C(=O)N[C@@H](CCCNC(=N)N)C(=O)N[C@H](C(=O)N1CCC[C@H]1C(=O)N1CCC[C@H]1C(N)=O)[C@@H](C)O)[C@@H](C)O)C(C)C [MBP(83-102)F83, Bt-FDENPVVHFF KNIVTPRTPP-NH2]
